{
  "source": "patent US12599599B2",
  "about": "“Anti-inflammatory, anti-cancer, and anti-angiogenic compounds, pharmaceutical compositions, and methods of making and using thereof” (MEDICON PHARMACEUTICALS, INC., priority 2017, dated 2026)",
  "key": {"[1]": {"system": "Ras palmitoylation in A2780 and A2780cis ovarian cancer cells", "assay": "Ras palmitoylation (resin capture, immunoblot)", "format": "cell-based, human", "procedure": "FIGS. 18A-18B illustrate the effect of compounds 5 and 6 on K-Ras. FIG. 18A: Compound 6 suppressed of K-Ras activation. Cells with mutant K-Ras were treated with compound 6 1.5×IC50 for the respective time periods. K-Ras activity was determined by Ras pull-down (Thermo Scientific; following vendor instructions). K-Ras activation is suppressed 37% at 1 hr and 88% at 2 hrs compared to respective controls. FIG. 18B: Compound 5 suppressed the palmitoylation of Ras in A2780 and A2780cis (resistant to cisplatin) ovarian cancer cells. Palmitoylation is detected by removing S-palmitate groups from proteins, creating new free thiols (where the palmitic acid group used to be) and capturing the previously S-palmitoylated proteins on a resin, using a commercial kit (Badrilla, Leeds, UK). Ras was detected in the eluate by immunoblot.\nThis effect may be particularly useful in types of cancer characterized by K-Ras mutation such as, for example, pancreatic, lung and ovarian cancer. FIG. 18A illustrates the inhibition of K-Ras activation by compound 6. […] This property of compound 5 is not shared for example by compound 6 or phosphosulindac."}, "[2]": {"assay": "Ocular pharmacokinetics and biodistribution after eye drops", "format": "in vivo, New Zealand rabbits", "parameters": "unit not given here", "conditions": "rabbit, 20% eye drops", "procedure": "The pharmacokinetics and biodistribution of compounds 1, 2, and 5 in the eye of rabbits were determined. Each of these compounds was dissolved in phosphate buffered saline (PBS) and used as eye drops. The eye drops were sterilized before application to rabbits by filtration through a 0.2 μm membrane. […] The eyes were harvested and eye tissues and the lacrimal glands were dissected, homogenized and the test compounds were extracted by acetonitrile and analyzed by HPLC, as described under Compound Synthesis described herein. Compounds 1 and 2 were detected at 328 nm, and compound 5 at 260 nm. […] All three compounds can unexpectedly, readily, and rapidly reach the posterior chamber of the eye."}, "[3]": {"system": "MIA PaCa2 human pancreatic cancer cells", "assay": "In vitro synergy with tamoxifen", "format": "cell-based", "conditions": "tamoxifen prior to or concurrently with compound 5", "excerpt": "Additionally, synergy has been documented between compounds 5 and 6 individually and several chemotherapeutic and other agents, including but not limited to various camptothecins (e.g., camptothecin 11), resveratrol, gemcitabine, docetaxel, curcumin, progesterone, and methotrexate. Such synergy concerned the ability of these combinations to markedly suppress the growth of various human cancer cell lines originating in the pancreas, lung and other tissues. Furthermore, extremely efficacious was the combination of compounds 5, 6 and tamoxifen in completely suppressing the growth of K-ras mutant human pancreatic cancer cell lines."}, "[4]": {"system": "5′-cap dependent translation initiation", "assay": "Renilla-Firefly luciferase dual translation assay in SKOV-3 cells", "format": "cell-based, human", "excerpt": "FIG. 13A: Compound 5 induces the phosphorylation of eIF2α, confirming integrated stress response. p-eIF2αinduces ATF4 that suppresses 5′-cap dependent translation initiation, shown below. […] The levels of reporter proteins used in the translation assay (Pierce™ Renilla-Firefly Luciferase Dual Assay Kit; Thermo Scientific, Grand Island, NY) were normalized to the levels of intracellular FLUC-RLUC transcripts and are shown as percent of untreated control cells. RLU=Relative light units. 5′-cap dependent translation initiation was much less and occurred later. Values: Mean±SEM; *, p<0.05 and **, p<0.01 vs. control. […] Loading controls: β-actin and GADPH."}, "[5]": {"system": "SKOV-3 human ovarian cancer cell xenografts", "assay": "Intraperitoneal luciferase-expressing SKOV-3 tumors in nude mice", "format": "in vivo", "conditions": "15 mg/kg ip once a day, six days a week", "procedure": "The ability of compound 5 to inhibit the growth of human ovarian cancer cell xenografts in nude mice was determined. A mouse model that recapitulates the features of peritoneal spread was used, the peritoneal spread being the clinically most relevant presentation of ovarian cancer. In this model, luciferase-expressing ovarian cancer cells are injected intraperitoneally (ip) into nude mice. Multiple tumors grow in the peritoneal cavity and their growth is monitored periodically using the IVIS Lumina II imaging system following the intraperitoneal administration of luciferin, the substrate of luciferase. The luciferase gene was transfected into SKOV-3 cells, and 2×10^6 cells were intraperitoneally injected into mice. Two weeks later, when tumors had grown, mice treatment was started by intraperitoneally injecting compound 5, 15 mg/kg or vehicle (corn oil), once a day, six days a week (n=10 mice/group).\nWhen the tumor volume of the compound 5 treated mice at the end of the study is compared to that of the day when treatment started (baseline), compound 5 caused 53% tumor regression, with 3 out of 10 mice having barely detectable tumors by imaging and no tumors visible at necropsy.\nCompound 6 was also efficacious against chemotherapy-resistant ovarian cancer. […] The effect of compound 6 in cisplatin resistant (A2780cis) and doxorubicin (Adriamycin) resistant (A2780ADR) tumors was studied. Briefly, each of these cell lines was subcutaneously inoculated into athymic nude mice and when the tumor size reached 100-200 mm^3, compound 6 150 mg/kg/day or its vehicle were given i.p. After 11 days of treatment, for the cisplatin-resistant tumors the tumor volume of the vehicle group was 2388±127 mm^3 and for compound 6 group 1032±108 mm^3 (mean±SEM; P<0.02); while for the doxorubicin-resistant tumors these values were: vehicle group=1369±337 mm^3 and compound 6 group=396±182 mm^3 (P<0.02)."}, "[6]": {"system": "HEY-T30 xenografts", "assay": "Synergy with cyclophosphamide, Taxol resistant subcutaneous xenografts", "format": "in vivo, nude mice", "conditions": "day 21; compound 5 10 mg/kg/day six days a week ip; cyclophosphamide 10 mg/kg six days a week orally; or both"}},
  "data": [
    {"molecule": "CCN(CC)CCCCNC(=O)c1ccccc1SC/C=C(\\C)CC/C=C(\\C)CCC=C(C)C", "note": "[Compound 5]", "values": [
      {"measurement": "suppression of palmitoylation of Ras", "setting": "[1]", "result": "suppressed"},
      {"measurement": "Drug level in Vitreous", "setting": "[2]", "result": 0.0},
      {"measurement": "Drug level in Ciliary body", "setting": "[2]; 40 min", "result": 0.0},
      {"measurement": "Drug level in Conjunctiva", "setting": "[2]; 40 min", "result": 33.2},
      {"measurement": "Drug level in Cornea", "setting": "[2]; 40 min", "result": 75.7},
      {"measurement": "Drug level in Iris", "setting": "[2]; 40 min", "result": 0.6},
      {"measurement": "Drug level in Lens", "setting": "[2]; 40 min", "result": 0.0},
      {"measurement": "Drug level in Retina", "setting": "[2]; 40 min", "result": 1.8},
      {"measurement": "Drug level in Sclera", "setting": "[2]; 40 min", "result": 1.3},
      {"measurement": "Drug level in Ciliary body", "setting": "[2]; 60 min", "result": 4.2},
      {"measurement": "Drug level in Conjunctiva", "setting": "[2]; 60 min", "result": 35.1},
      {"measurement": "Drug level in Cornea", "setting": "[2]; 60 min", "result": 96.7},
      {"measurement": "Drug level in Iris", "setting": "[2]; 60 min", "result": 1.9},
      {"measurement": "Drug level in Lens", "setting": "[2]; 60 min", "result": 0.0},
      {"measurement": "Drug level in Retina", "setting": "[2]; 60 min", "result": 3.4},
      {"measurement": "Drug level in Sclera", "setting": "[2]; 60 min", "result": 0.6},
      {"measurement": "Drug level in Vitreous", "setting": "[2]; 60 min", "result": 0.0},
      {"measurement": "synergy with tamoxifen on growth of MIA PaCa2 cells", "setting": "[3]", "result": "synergizes"},
      {"measurement": "5′-cap dependent translation initiation", "setting": "[4]", "result": "suppresses predominantly"},
      {"measurement": "reduction of tumor volume compared to control", "setting": "[5]; day 24", "result": 153, "unit": "%"},
      {"measurement": "mice having barely detectable tumors by imaging and no tumors visible at necropsy", "setting": "[5]; end of study", "result": "3 out of 10"},
      {"measurement": "tumor regression vs baseline (day treatment started)", "setting": "[5]; end of study", "result": 53, "unit": "%"},
      {"measurement": "inhibition of tumor growth compared to control", "setting": "[6]", "result": 26, "unit": "%"}
    ]}
  ]
}
